Measurements from ChEMBL document CHEMBL1201862, “PubChem BioAssay data set” (2004).
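Step 1: Grow cells in 96-well plates. Step 2: Expose to compound for 48 hours at 5 concentrations. Step 3: Interpolate endpoints linearly; if unreached, use highest concentration. GI50: concentration for 50% inhibition of growth.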 Calls of active or inactive are those of the source. Rule as the data show it: active = GI50 up to about 1.1 µM and inactive = higher.

Tests used:
Assay in all cases: inhibition of tumour cell growth, NCI panel, 48 h
Hs-578T = system: Hs-578T
NCI-H522 = system: NCI-H522
SNB-75 = system: SNB-75
EKVX = system: EKVX
HOP-62 = system: HOP-62
NCI/ADR-RES = system: NCI/ADR-RES
COLO 205 = system: COLO 205
U-251 = system: U-251
HCT-116 = system: HCT-116
OVCAR-4 = system: OVCAR-4
MDA-MB-231 = system: MDA-MB-231
K562 = system: K562
UACC-62 = system: UACC-62
SF-295 = system: SF-295
BT-549 = system: BT-549
SF-539 = system: SF-539
MDA-MB-435 = system: MDA-MB-435
PC-3 = system: PC-3
IGROV-1 = system: IGROV-1
SK-OV-3 = system: SK-OV-3

Compound | GI50 (Hs-578T) | GI50 (NCI-H522) | GI50 (SNB-75) | GI50 (EKVX) | GI50 (HOP-62) | GI50 (NCI/ADR-RES) | GI50 (COLO 205) | GI50 (U-251) | GI50 (HCT-116) | GI50 (OVCAR-4) | GI50 (MDA-MB-231) | GI50 (K562) | GI50 (UACC-62) | GI50 (SF-295) | GI50 (BT-549) | GI50 (SF-539) | GI50 (MDA-MB-435) | GI50 (PC-3) | GI50 (IGROV-1) | GI50 (SK-OV-3)
CCOC(=O)C1C(=O)CC(C)(O)C(C(=O)OCC)C1c1ccc(OC)cc1 (centres undefined) | > 100 µM (inactive) | > 100 µM (inactive) | > 100 µM (inactive) | > 100 µM (inactive) | > 100 µM (inactive) | > 100 µM (inactive) | > 100 µM (inactive) | > 100 µM (inactive) | > 100 µM (inactive) | > 100 µM (inactive) | > 100 µM (inactive) | > 100 µM (inactive) | > 100 µM (inactive) | > 100 µM (inactive) | > 100 µM (inactive) | > 100 µM (inactive) | > 100 µM (inactive) | > 100 µM (inactive) | > 100 µM (inactive) | 
O=S(=O)(Nc1nccs1)c1ccc([As](=O)(O)O)cc1 | > 100 µM (inactive) | > 100 µM (inactive) | > 100 µM (inactive) | > 100 µM (inactive) | > 100 µM (inactive) | > 100 µM (inactive) | > 100 µM (inactive) | > 100 µM (inactive) | > 100 µM (inactive) | > 100 µM (inactive) | > 100 µM (inactive) | > 100 µM (inactive) | > 100 µM (inactive) | > 100 µM (inactive) | > 100 µM (inactive) |  | > 100 µM (inactive) | > 100 µM (inactive) | > 100 µM (inactive) | > 100 µM (inactive)
CC1=C(C#N)C(=O)N(/N=C/c2ccc(Cl)cc2)C(=O)/C1=c1\o/c(=C2/C(=O)N(/N=C/c3ccc(Cl)cc3)C(=O)C(C#N)=C2C)c2nccnc12 | 21.2 µM (inactive) | > 100 µM (inactive) | 15.3 µM (inactive) | > 100 µM (inactive) |  | > 100 µM (inactive) | > 100 µM (inactive) | > 100 µM (inactive) | 76.7 µM (inactive) | 57.5 µM (inactive) | > 100 µM (inactive) | 69.7 µM (inactive) | > 100 µM (inactive) | > 100 µM (inactive) | > 100 µM (inactive) | > 100 µM (inactive) | > 100 µM (inactive) | 60.7 µM (inactive) | > 100 µM (inactive) | > 100 µM (inactive)
CC(C)(C)OC(=O)NCC(c1c[nH]c2cc(Br)ccc12)c1c[nH]c2cc(Br)ccc12 | 19.8 µM (inactive) | 17.3 µM (inactive) | 21.9 µM (inactive) | 16.2 µM (inactive) | 17.4 µM (inactive) | 17.7 µM (inactive) | 15.6 µM (inactive) | 17.3 µM (inactive) | 17 µM (inactive) | 16.7 µM (inactive) | 18 µM (inactive) | 40.1 µM (inactive) | 16 µM (inactive) | 18.6 µM (inactive) | 16.1 µM (inactive) | 20.2 µM (inactive) | 16.8 µM (inactive) | 17.3 µM (inactive) | 14.9 µM (inactive) | 15.8 µM (inactive)
Cc1c(C)c2c(c(N)c1C#N)C(=O)N(OS(=O)(=O)c1ccccc1)C2=O | 34.8 µM (inactive) | 17.1 µM (inactive) | 32.5 µM (inactive) | 18.9 µM (inactive) |  | 22.6 µM (inactive) | 21.8 µM (inactive) | 20.5 µM (inactive) | 4.42 µM (inactive) | 21.2 µM (inactive) | 52.8 µM (inactive) | 16.7 µM (inactive) | 23.9 µM (inactive) | > 100 µM (inactive) | 19.9 µM (inactive) | 16.6 µM (inactive) | 19 µM (inactive) | 35.6 µM (inactive) | 18.5 µM (inactive) | 
COc1cc(C2S/C(=C/c3ccccc3)C(=O)N2c2ccc(Cl)cc2)cc(OC)c1OC (centres undefined) | 32.3 µM (inactive) | 0.656 µM (active) | 16.4 µM (inactive) | 23.8 µM (inactive) | 14.2 µM (inactive) | 16.9 µM (inactive) | 0.617 µM (active) | 37.7 µM (inactive) | 3.65 µM (inactive) | 4.71 µM (inactive) | > 43.9 µM (inactive) |  | 23.3 µM (inactive) | 7.64 µM (inactive) | 7.43 µM (inactive) |  | 1.52 µM (inactive) | > 46.6 µM (inactive) | 13.5 µM (inactive) | > 20.1 µM (inactive)
NC(=O)NNC(=O)c1nc[nH]c1[N+](=O)[O-] | > 100 µM (inactive) | > 100 µM (inactive) | > 100 µM (inactive) | > 100 µM (inactive) | > 100 µM (inactive) | > 100 µM (inactive) | > 100 µM (inactive) | > 100 µM (inactive) | > 100 µM (inactive) | > 100 µM (inactive) | > 100 µM (inactive) | > 100 µM (inactive) | > 100 µM (inactive) |  | > 100 µM (inactive) | > 100 µM (inactive) | > 100 µM (inactive) | > 100 µM (inactive) | > 100 µM (inactive) | > 100 µM (inactive)
CC1CNC(c2ccc(-c3nc(-c4ccc(C5=NC(C)CN5)cc4)nc(N(C)C)n3)cc2)=N1 (centres undefined) | 3.21 µM (inactive) | 1.24 µM (inactive) | 1.82 µM (inactive) | 2.54 µM (inactive) | 1.47 µM (inactive) | 22 µM (inactive) | 1.1 µM (active) | 0.991 µM (active) | 0.964 µM (active) | 1.55 µM (inactive) | 1.31 µM (inactive) | 1.41 µM (inactive) | 1.73 µM (inactive) | 4.22 µM (inactive) | 3.74 µM (inactive) | 0.855 µM (active) | 1.46 µM (inactive) | 1.57 µM (inactive) | 4.06 µM (inactive) | 1.91 µM (inactive)
CC(=O)c1sc(=N)n(-c2c(C)cccc2C)c1C | > 100 µM (inactive) | > 100 µM (inactive) | > 100 µM (inactive) | > 100 µM (inactive) | > 100 µM (inactive) | > 100 µM (inactive) | > 100 µM (inactive) | > 100 µM (inactive) |  | > 100 µM (inactive) | > 100 µM (inactive) | > 100 µM (inactive) | > 100 µM (inactive) |  | > 100 µM (inactive) | > 100 µM (inactive) | > 100 µM (inactive) | > 100 µM (inactive) | > 100 µM (inactive) | > 100 µM (inactive)
Cn1ccc(C(=O)NCCN(CCNC(=O)c2ccn(C)c(=O)c2O)CCNC(=O)c2cccc(=O)n2O)c(O)c1=O | > 100 µM (inactive) | > 100 µM (inactive) | > 100 µM (inactive) |  | > 100 µM (inactive) | > 100 µM (inactive) | > 100 µM (inactive) | > 100 µM (inactive) | > 100 µM (inactive) | > 100 µM (inactive) | > 100 µM (inactive) | > 100 µM (inactive) | > 100 µM (inactive) | > 100 µM (inactive) | > 100 µM (inactive) | > 100 µM (inactive) | > 100 µM (inactive) | > 100 µM (inactive) | 29.2 µM (inactive) | > 100 µM (inactive)
CCCCC(=O)c1c(O)ccc2c(C)cc(=O)oc12 | 29 µM (inactive) | 58.2 µM (inactive) | > 100 µM (inactive) | 89.1 µM (inactive) | > 100 µM (inactive) | 55.7 µM (inactive) | > 100 µM (inactive) | > 100 µM (inactive) | > 100 µM (inactive) | 69.8 µM (inactive) | 67.8 µM (inactive) | > 100 µM (inactive) | > 100 µM (inactive) | > 100 µM (inactive) | 37.6 µM (inactive) | > 100 µM (inactive) | > 100 µM (inactive) | > 100 µM (inactive) | 95.5 µM (inactive) | 
O=C(O)C(O)C(O)C(O)C(O)c1nc2ccccc2s1 (centres undefined) | 16.7 µM (inactive) | 12.3 µM (inactive) | 16.9 µM (inactive) | 15.4 µM (inactive) | 18.3 µM (inactive) | 31 µM (inactive) | 34.8 µM (inactive) | 15.7 µM (inactive) | 16.1 µM (inactive) | 20.3 µM (inactive) | 16.6 µM (inactive) |  | 15.3 µM (inactive) | 15.6 µM (inactive) | 26.3 µM (inactive) | 17.9 µM (inactive) | 17.3 µM (inactive) | 15.3 µM (inactive) | 10.9 µM (inactive) | 19.1 µM (inactive)
COC(=O)[C@]1(c2cc3ccccc3n2S(=O)(=O)c2ccccc2)CC2CN(C(=O)OCc3ccccc3)C1C1OC(C)(C)OC21 (some centres undefined) | > 100 µM (inactive) | 1.31 µM (inactive) | 80.4 µM (inactive) | > 100 µM (inactive) | > 100 µM (inactive) | > 100 µM (inactive) | > 100 µM (inactive) | > 100 µM (inactive) | > 100 µM (inactive) | > 100 µM (inactive) | > 100 µM (inactive) |  | > 100 µM (inactive) | > 100 µM (inactive) | > 100 µM (inactive) |  | > 100 µM (inactive) | > 100 µM (inactive) | > 100 µM (inactive) | > 100 µM (inactive)
CNc1cccc(-c2cc(O)c3cc4c(cc3n2)OCO4)c1 | 0.269 µM (active) | 0.127 µM (active) | 1.8 µM (inactive) |  | 0.409 µM (active) | 0.199 µM (active) | 0.167 µM (active) | 0.267 µM (active) | 0.236 µM (active) | > 20.7 µM (inactive) | 0.407 µM (active) | 0.201 µM (active) | 0.153 µM (active) | 2.28 µM (inactive) | 0.394 µM (active) | 0.198 µM (active) | 0.0378 µM (active) | 0.254 µM (active) | 0.437 µM (active) | 0.256 µM (active)
